# Measured values from US20180304019A1, “ADMINISTRATION APPARATUS” (DAICEL CORPORATION, priority 2015, published 2018).
# Where two headings read alike, the source gives them in different places.
# System: intradermal layer, skin tissue of the rabbit in vivo
# Settings: dose 100 μl
# Protocol: Moreover, an object of the following experimental conditions is to confirm, when an inflammatory substance is administered to the intradermal layer which is skin tissue of the rabbit in vivo, a presence or absence of an inflammatory response (formation of erythema and eschar, and formation of edema) for each elapsed time (after 24 hours, 48 hours, and 72 hours). In addition, the injection of an injection solution with the needled injector was performed at a constant pressurization rate.
# 16-week-old male Std: JW/CSK rabbit, already shaved and smooth skin-verified, was used.
# An aqueous solution of the following inflammatory substance was used as the dosing liquid and the injection solution.
# Inflammatory substance: acetic acid, diluted to a predetermined concentration with distilled water, dose 100 μl
# Definitions of numerical values representing the experimental results in the tables with respect to each of erythema and eschar formation and edema formation are as follows.
# (Erythema and Eschar Formation)
# 1 Very slight erythema (barely perceptible erythema)
# 2 Slight erythema (clearly perceptible erythema)
# 3 Moderate to severe erythema
# 4 Severe erythema to eschar formations
# 1 Very slight edema (barely perceptible edema)
# 2 Slight edema (edema with edges perceptible due to definite raising)
# 3 Moderate edema (raised approximately 1 mm)
# 4 Severe edema (raised 1 mm or more and extending beyond the area of exposure)
# [1] = acetic acid 0.25%, Comparative example (needled injector), 24 h
# [2] = acetic acid 0.25%, Comparative example (needled injector), 48 h
# [3] = acetic acid 0.25%, Comparative example (needled injector), 72 h
# [4] = acetic acid 0.25%, Injector 1, 24 h
# [5] = acetic acid 0.25%, Injector 1, 48 h
# [6] = acetic acid 0.25%, Injector 1, 72 h
# [7] = acetic acid 0.5%, Comparative example (needled injector), 24 h
# [8] = acetic acid 0.5%, Comparative example (needled injector), 48 h
# [9] = acetic acid 0.5%, Comparative example (needled injector), 72 h
# [10] = acetic acid 0.5%, Injector 1, 24 h
# [11] = acetic acid 0.5%, Injector 1, 48 h
# [12] = acetic acid 0.5%, Injector 1, 72 h
# [13] = acetic acid 1.0%, Comparative example (needled injector), 24 h
# [14] = acetic acid 1.0%, Comparative example (needled injector), 48 h
# [15] = acetic acid 1.0%, Comparative example (needled injector), 72 h
# [16] = acetic acid 1.0%, Injector 1, 24 h
# [17] = acetic acid 1.0%, Injector 1, 48 h
# [18] = acetic acid 1.0%, Injector 1, 72 h
# [19] = acetic acid 1.5%, Comparative example (needled injector), 24 h
# [20] = acetic acid 1.5%, Comparative example (needled injector), 48 h
# [21] = acetic acid 1.5%, Comparative example (needled injector), 72 h
# [22] = acetic acid 1.5%, Injector 1, 24 h
# [23] = acetic acid 1.5%, Injector 1, 48 h
# [24] = acetic acid 1.5%, Injector 1, 72 h
# [25] = acetic acid 2.0%, Comparative example (needled injector), 24 h
# [26] = acetic acid 2.0%, Comparative example (needled injector), 48 h
# [27] = acetic acid 2.0%, Comparative example (needled injector), 72 h
# [28] = acetic acid 2.0%, Injector 1, 24 h
# [29] = acetic acid 2.0%, Injector 1, 48 h
# [30] = acetic acid 2.0%, Injector 1, 72 h
smiles,measurement,setting,value
"CC(=O)O [Acetic acid, acetic acid]",Edema 24 h,[1],0
same,Erythema etc. 24 h,[1],1
same,Edema 48 h,[2],0
same,Erythema etc. 48 h,[2],1
same,Edema 72 h,[3],0
same,Erythema etc. 72 h,[3],1
same,Edema 24 h,[4],0
same,Erythema etc. 24 h,[4],1
same,Edema 48 h,[5],0
same,Erythema etc. 48 h,[5],1
same,Edema 72 h,[6],0
same,Erythema etc. 72 h,[6],1
same,Edema 24 h,[7],0
same,Erythema etc. 24 h,[7],1
same,Edema 48 h,[8],0
same,Erythema etc. 48 h,[8],1
same,Edema 72 h,[9],0
same,Erythema etc. 72 h,[9],1
same,Edema 24 h,[10],0
same,Erythema etc. 24 h,[10],1
same,Edema 48 h,[11],0
same,Erythema etc. 48 h,[11],1
same,Edema 72 h,[12],0
same,Erythema etc. 72 h,[12],1
same,Edema 24 h,[13],1
same,Erythema etc. 24 h,[13],1
same,Edema 48 h,[14],1
same,Erythema etc. 48 h,[14],1
same,Edema 72 h,[15],1
same,Erythema etc. 72 h,[15],1
same,Edema 24 h,[16],0
same,Erythema etc. 24 h,[16],1
same,Edema 48 h,[17],0
same,Erythema etc. 48 h,[17],1
same,Edema 72 h,[18],0
same,Erythema etc. 72 h,[18],1
same,Edema 24 h,[19],2
same,Erythema etc. 24 h,[19],1
same,Edema 48 h,[20],2
same,Erythema etc. 48 h,[20],1
same,Edema 72 h,[21],2
same,Erythema etc. 72 h,[21],1
same,Edema 24 h,[22],0
same,Erythema etc. 24 h,[22],1
same,Edema 48 h,[23],0
same,Erythema etc. 48 h,[23],1
same,Edema 72 h,[24],0
same,Erythema etc. 72 h,[24],1
same,Edema 24 h,[25],3
same,Erythema etc. 24 h,[25],1
same,Edema 48 h,[26],3
same,Erythema etc. 48 h,[26],1
same,Edema 72 h,[27],2
same,Erythema etc. 72 h,[27],1
same,Edema 24 h,[28],1
same,Erythema etc. 24 h,[28],1
same,Edema 48 h,[29],1
same,Erythema etc. 48 h,[29],1
same,Edema 72 h,[30],1
same,Erythema etc. 72 h,[30],1
